In brackets after ≈: the same amount, converted by molar mass. Activity calls are given as the source filed them. The rule behind the calls is not given here.
Legend:
Salmonella typhimurium [1] = test: Antibacterial activity against Salmonella typhimurium ATCC 14028 at pH 7 after 16 to 18 hrs by broth microdilution method; type: functional, Salmonella enterica subsp. enterica serovar Typhimurium; details: Salmonella enterica
Salmonella typhimurium [2] = test: Antibacterial activity against Salmonella typhimurium ATCC 14028 assessed as survival at 10 uM after 3 hrs by broth microdilution method; type: functional, Salmonella enterica subsp. enterica serovar Typhimurium
Salmonella typhimurium [3] = test: Bactericidal activity against Salmonella typhimurium ATCC 14028 at 10 uM within 3 to 9 hrs; type: functional, Salmonella enterica subsp. enterica serovar Typhimurium
Salmonella typhimurium [4] = test: Antibacterial activity against Salmonella typhimurium ATCC 14028 at pH 5 after 16 to 18 hrs by broth microdilution method; type: functional, Salmonella enterica subsp. enterica serovar Typhimurium; details: Salmonella enterica
Salmonella typhimurium [5] = test: Bactericidal activity against Salmonella typhimurium ATCC 14028 infected in mouse RAW264.7 cells assessed as log reduction in intracellular bacterial load at 10 uM after 10 hrs in presence of gentamycin; type: functional, Salmonella enterica subsp. enterica serovar Typhimurium
Salmonella typhimurium [6] = test: Bactericidal activity against Salmonella typhimurium ATCC 14028 infected in mouse RAW264.7 cells assessed as log reduction in intracellular bacterial load at 5 uM after 10 hrs in presence of gentamycin; type: functional, Salmonella enterica subsp. enterica serovar Typhimurium
Salmonella typhimurium [7] = test: Bactericidal activity against Salmonella typhimurium ATCC 14028 at 0.03125 to 4 times MIC after 24 hrs by dose-kill assay; type: functional, organism-based; details: Salmonella enterica subsp. enterica serovar Typhimurium
[8] = Drug uptake in mouse RAW264.7 cells at 2 uM using FITC-labeled test compound at 4 degC after 2 hrs in presence of clathrin-mediated endocytosis inhibitor chlorpromazine by trypan blue staining-based flow cytometry; type: ADME, cell-based; details: raw264.7, 2 h
[9] = Drug uptake in cytosol of mouse RAW264.7 cells at 5 uM using FITC-labeled test compound after 5 hrs by Hoechst 33342/FM 4-64 staining-based confocal microscopic analysis; type: ADME, subcellular
[10] = Drug uptake in mouse RAW264.7 cells at 2 uM using FITC-labeled test compound after 2 hrs at 4 degC in presence of microtubule polymerization inhibitor nocodazole by trypan blue staining-based flow cytometry; type: ADME, cell-based; details: raw264.7, 2 h
[11] = Drug internalization in mouse RAW264.7 cells at 1 uM using FITC-labeled test compound after 0.5 hrs by flow cytometry; type: ADME, cell-based; details: raw264.7, 0.5 h
[12] = Drug uptake in mouse RAW264.7 cells at 2 uM using FITC-labeled test compound at 4 degC after 2 hrs in presence of macropinocytosis inhibitor amiloride by trypan blue staining-based flow cytometry; type: ADME, cell-based; details: raw264.7, 2 h
[13] = Drug uptake in mouse RAW264.7 cells at 0.5 uM using FITC-labeled test compound at 4 degC after 2 hrs by flow cytometry; type: ADME, cell-based; details: raw264.7, 2 h
[14] = Drug uptake in mouse RAW264.7 cells at 5 uM using FITC-labeled test compound after 2 hrs by flow cytometry; type: ADME, cell-based; details: raw264.7, 2 h
[15] = Cytotoxicity against mouse RAW264.7 cells assessed as cell survival at 100 uM after 8 hrs by MTT assay; type: cell-based; details: read-out: Survival
[16] = Drug internalization in mouse RAW264.7 cells at 1 uM using FITC-labeled test compound after 2 hrs by flow cytometry; type: ADME, cell-based; details: raw264.7, 2 h
[17] = Drug internalization in mouse RAW264.7 cells using FITC-labeled test compound by flow cytometry; type: ADME, cell-based
[18] = Drug uptake in mouse RAW264.7 cells at 2 uM using FITC-labeled test compound at 4 degC after 2 hrs in presence of lipid raft disruptor MbetaCD by trypan blue staining-based flow cytometry; type: ADME, cell-based; details: raw264.7, 2 h
[19] = Drug uptake in mouse RAW264.7 cells at 5 uM using FITC-labeled test compound after 0.5 hrs by flow cytometry; type: ADME, cell-based; details: raw264.7, 0.5 h
Salmonella typhimurium [20] = test: Bactericidal activity against Salmonella typhimurium ATCC 14028 at 10 uM up to 9 hrs; type: functional, organism-based; details: Salmonella enterica subsp. enterica serovar Typhimurium
Salmonella typhimurium [21] = test: Bactericidal activity against Salmonella typhimurium ATCC 14028 at 1 to 2 times MIC after 2 hrs by time-kill assay; type: functional, organism-based; details: Salmonella enterica subsp. enterica serovar Typhimurium
Salmonella typhimurium [22] = test: Bactericidal activity against Salmonella typhimurium ATCC 14028 at 0.125 to 1 times MIC after 24 hrs by dose-kill assay; type: functional, organism-based; details: Salmonella enterica subsp. enterica serovar Typhimurium
Salmonella typhimurium [23] = test: Bactericidal activity against Salmonella typhimurium ATCC 14028 at MIC up to 6 hrs by time-kill assay; type: functional, organism-based; details: Salmonella enterica subsp. enterica serovar Typhimurium

H-RRWQWR-OH
MIC (Salmonella typhimurium [1]): > 80 µM

CC(C)[C@@H]1NC(=O)[C@H](C)NC(=O)[C@H](CC(N)=O)NC(=O)[C@H](CCCNC(=N)N)NC(=O)[C@H](Cc2ccc(O)cc2)NC(=O)[C@H](C(C)C)NC(=O)[C@@H]2CSSC[C@H](NC(=O)[C@H](C(C)C)NC(=O)[C@H](CCCNC(=N)N)NC1=O)C(=O)N[C@@H](Cc1cnc[nH]1)C(=O)N[C@@H](CCCNC(=N)N)C(=O)N[C@@H](CCCNC(=N)N)C(=O)N[C@H](C(=O)N[C@@H](CC(N)=O)C(=O)O)CSSC[C@H](NC(=O)[C@H](Cc1ccccc1)NC(=O)[C@H](C)N)C(=O)N[C@@H](Cc1c[nH]c3ccccc13)C(=O)N[C@@H](CC(N)=O)C(=O)N[C@@H](C(C)C)C(=O)N2
Survival (Salmonella typhimurium [2]): 2.3 ×10⁵ CFU/ml | Activity (Salmonella typhimurium [3]): 22.41 - 69.74% | MIC (Salmonella typhimurium [4]): 25 µM (≈ 64.2 µg/mL) | MIC (Salmonella typhimurium [1]): 0.78 µM (≈ 2 µg/mL)

O=C(O)c1cn(C2CC2)c2cc(N3CCNCC3)c(F)cc2c1=O [CIPROFLOXACIN]
log(activity) (Salmonella typhimurium [5]): 3.26 | Survival (Salmonella typhimurium [2]): 5.5 ×10³ CFU/ml | log(activity) (Salmonella typhimurium [6]): 2.67 | Activity (Salmonella typhimurium [3]): 98.11 - 99.99% | Activity (Salmonella typhimurium [7]): Active | MIC (Salmonella typhimurium [1]): 0.05 µM (≈ 0.0166 µg/mL)

CC(C)[C@@H]1NC(=O)[C@H](C)NC(=O)[C@H](CC(N)=O)NC(=O)[C@H](CCCNC(=N)N)NC(=O)[C@H](Cc2ccc(O)cc2)NC(=O)[C@H](C(C)C)NC(=O)[C@@H]2CSSC[C@H](NC(=O)[C@H](C(C)C)NC(=O)[C@H](CCCNC(=N)N)NC1=O)C(=O)N[C@@H](Cc1cnc[nH]1)C(=O)N[C@@H](CCCNC(=N)N)C(=O)N[C@@H](CCCNC(=N)N)C(=O)N[C@H](C(=O)N[C@@H](CC(N)=O)C(=O)O)CSSC[C@H](NC(=O)[C@H](Cc1ccccc1)NC(=O)[C@H](C)NC(=O)[C@H](CCCNC(=N)N)NC(=O)[C@H](Cc1c[nH]c3ccccc13)NC(=O)[C@H](CCC(N)=O)NC(=O)[C@H](Cc1c[nH]c3ccccc13)NC(=O)[C@H](CCCNC(=N)N)NC(=O)[C@@H](N)CCCNC(=N)N)C(=O)N[C@@H](Cc1c[nH]c3ccccc13)C(=O)N[C@@H](CC(N)=O)C(=O)N[C@@H](C(C)C)C(=O)N2
Drug uptake [8]: Not Active | Drug uptake [9]: Active | Drug uptake [10]: Not Active | Drug uptake [11]: 28.3% | Drug uptake [12]: Not Active | Drug uptake [13]: 17.9% | Drug uptake [14]: 96.3% | viability at 8 h, 100 µM [15]: 86.5% | Drug uptake [16]: 57.2% | Drug uptake [17]: Dose-dependent effect and Tde | Drug uptake [18]: Not Active | Drug uptake [19]: 70.9%

CC(C)[C@@H]1NC(=O)[C@H](C)NC(=O)[C@H](CC(N)=O)NC(=O)[C@H](CCCNC(=N)N)NC(=O)[C@H](Cc2ccc(O)cc2)NC(=O)[C@H](C(C)C)NC(=O)[C@@H]2CSSC[C@@H](NC(=O)[C@H](C(C)C)NC(=O)[C@H](CCCNC(=N)N)NC1=O)C(=O)N[C@@H](Cc1cnc[nH]1)C(=O)N[C@@H](CCCNC(=N)N)C(=O)N[C@@H](CCCNC(=N)N)C(=O)N[C@H](C(=O)N[C@@H](CC(N)=O)C(=O)O)CSSC[C@H](NC(=O)[C@H](Cc1ccccc1)NC(=O)[C@H](C)NC(=O)[C@H](CCCNC(=N)N)NC(=O)[C@H](Cc1c[nH]c3ccccc13)NC(=O)[C@H](CCC(N)=O)NC(=O)[C@H](Cc1c[nH]c3ccccc13)NC(=O)[C@H](CCCNC(=N)N)NC(=O)[C@@H](N)CCCNC(=N)N)C(=O)N[C@@H](Cc1c[nH]c3ccccc13)C(=O)N[C@@H](CC(N)=O)C(=O)N[C@@H](C(C)C)C(=O)N2
Activity (Salmonella typhimurium [20]): inactive | Activity (Salmonella typhimurium [21]): Active | Activity (Salmonella typhimurium [22]): Active

CC(C)[C@@H]1NC(=O)[C@H](C)NC(=O)[C@H](CC(N)=O)NC(=O)[C@H](CCCNC(=N)N)NC(=O)[C@H](Cc2ccc(O)cc2)NC(=O)[C@H](C(C)C)NC(=O)[C@@H]2CSSC[C@@H](NC(=O)[C@H](C(C)C)NC(=O)[C@@H](CCCNC(=N)N)NC1=O)C(=O)N[C@@H](Cc1cnc[nH]1)C(=O)N[C@H](CCCNC(=N)N)C(=O)N[C@@H](CCCNC(=N)N)C(=O)N[C@@H](C(=O)N[C@@H](CC(N)=O)C(=O)O)CSSC[C@H](NC(=O)[C@H](Cc1ccccc1)NC(=O)[C@H](C)NC(=O)[C@H](CCCNC(=N)N)NC(=O)[C@H](CCCNC(=N)N)NC(=O)[C@H](CCCNC(=N)N)NC(=O)[C@H](CCC(N)=O)NC(=O)[C@H](CCCNC(=N)N)NC(=O)[C@H](CCCNC(=N)N)NC(=O)[C@H](CCCCN)NC(=O)[C@H](CCCCN)NC(=O)[C@H](CCCNC(=N)N)NC(=O)CNC(=O)[C@@H](N)Cc1ccc(O)cc1)C(=O)N[C@@H](Cc1c[nH]c3ccccc13)C(=O)N[C@H](CC(N)=O)C(=O)N[C@@H](C(C)C)C(=O)N2
Activity (Salmonella typhimurium [20]): inactive | Activity (Salmonella typhimurium [23]): Active | Activity (Salmonella typhimurium [21]): Active | Activity (Salmonella typhimurium [22]): Active

CC(C)[C@@H]1NC(=O)[C@H](C)NC(=O)[C@H](CC(N)=O)NC(=O)[C@H](CCCNC(=N)N)NC(=O)[C@H](Cc2ccc(O)cc2)NC(=O)[C@H](C(C)C)NC(=O)[C@@H]2CSSC[C@H](NC(=O)[C@H](C(C)C)NC(=O)[C@H](CCCNC(=N)N)NC1=O)C(=O)N[C@@H](Cc1cnc[nH]1)C(=O)N[C@@H](CCCNC(=N)N)C(=O)N[C@@H](CCCNC(=N)N)C(=O)N[C@H](C(=O)N[C@@H](CC(N)=O)C(=O)O)CSSC[C@H](NC(=O)[C@H](Cc1ccccc1)NC(=O)[C@H](C)NC(=O)[C@H](CCCNC(=N)N)NC(=O)[C@H](CCCNC(=N)N)NC(=O)[C@H](CCCNC(=N)N)NC(=O)[C@H](CCC(N)=O)NC(=O)[C@H](CCCNC(=N)N)NC(=O)[C@H](CCCNC(=N)N)NC(=O)[C@H](CCCCN)NC(=O)[C@H](CCCCN)NC(=O)[C@H](CCCNC(=N)N)NC(=O)CNC(=O)[C@@H](N)Cc1ccc(O)cc1)C(=O)N[C@@H](Cc1c[nH]c3ccccc13)C(=O)N[C@@H](CC(N)=O)C(=O)N[C@@H](C(C)C)C(=O)N2
Drug uptake [8]: Not Active | Drug uptake [9]: Active | Drug uptake [10]: Not Active | Drug uptake [11]: 93.5% | Drug uptake [12]: Not Active | Drug uptake [13]: 8.3% | Drug uptake [14]: 99.9% | viability at 8 h, 100 µM [15]: 90.2% | Drug uptake [16]: 99.8% | Drug uptake [17]: Dose-dependent effect and Tde | Drug uptake [18]: Not Active | Drug uptake [19]: 99.9%

CC(C)[C@@H]1NC(=O)[C@H](C)NC(=O)[C@H](CC(N)=O)NC(=O)[C@H](CCCNC(=N)N)NC(=O)[C@H](Cc2ccc(O)cc2)NC(=O)[C@H](C(C)C)NC(=O)[C@@H]2CSSC[C@H](NC(=O)[C@H](C(C)C)NC(=O)[C@H](CCCNC(=N)N)NC1=O)C(=O)N[C@@H](Cc1cnc[nH]1)C(=O)N[C@@H](CCCNC(=N)N)C(=O)N[C@@H](CCCNC(=N)N)C(=O)N[C@@H](C(=O)N[C@@H](CC(N)=O)C(=O)O)CSSC[C@H](NC(=O)[C@H](Cc1ccccc1)NC(=O)[C@H](C)N)C(=O)N[C@@H](Cc1c[nH]c3ccccc13)C(=O)N[C@@H](CC(N)=O)C(=O)N[C@@H](C(C)C)C(=O)N2
Activity (Salmonella typhimurium [20]): inactive | Activity (Salmonella typhimurium [22]): Active

N=C(N)NCCC[C@H](NC(=O)[C@H](CCCNC(=N)N)NC(=O)[C@H](CCCNC(=N)N)NC(=O)[C@H](CCC(N)=O)NC(=O)[C@H](CCCNC(=N)N)NC(=O)[C@H](CCCNC(=N)N)NC(=O)[C@H](CCCCN)NC(=O)[C@H](CCCCN)NC(=O)[C@H](CCCNC(=N)N)NC(=O)CNC(=O)[C@@H](N)Cc1ccc(O)cc1)C(=O)O
MIC (Salmonella typhimurium [1]): > 80 µM
